Reference: the NIST ThermoML archive (doi:10.1021/je900596d)

Conditions: for mass density: Vibrating tube method; for vapor or sublimation pressure: Closed cell (Static) method

FC(F)=C(F)C(F)(F)F [hexafluoropropene]
Conditions	mass density [kg/m3]
303.36 K, 1884.5 kPa, Liquid	1299.72
303.36 K, 1906.2 kPa, Liquid	1300.05
303.36 K, 1950 kPa, Liquid	1300.59
303.36 K, 1985.6 kPa, Liquid	1301.03
303.36 K, 2016.6 kPa, Liquid	1301.15
303.36 K, 2051.2 kPa, Liquid	1301.63
303.36 K, 2084.4 kPa, Liquid	1301.95
303.36 K, 2119.1 kPa, Liquid	1302.35
303.36 K, 2170.3 kPa, Liquid	1302.96
303.36 K, 2204.1 kPa, Liquid	1303.24
303.36 K, 2239.2 kPa, Liquid	1303.63
303.36 K, 2326 kPa, Liquid	1304.46
303.36 K, 2359.9 kPa, Liquid	1304.86
303.36 K, 2392.6 kPa, Liquid	1305.27
303.36 K, 2427 kPa, Liquid	1305.54
303.36 K, 2445.1 kPa, Liquid	1305.96
303.36 K, 2496.7 kPa, Liquid	1306.19
303.36 K, 2513.8 kPa, Liquid	1306.54
303.36 K, 2546.9 kPa, Liquid	1306.82
303.36 K, 2585.2 kPa, Liquid	1307.14
303.36 K, 2621.3 kPa, Liquid	1307.6
303.36 K, 2688.6 kPa, Liquid	1308.11
303.36 K, 2773.2 kPa, Liquid	1309.07
303.36 K, 2808 kPa, Liquid	1309.41
303.36 K, 2842.3 kPa, Liquid	1309.71
303.36 K, 2874.3 kPa, Liquid	1310.03
303.36 K, 2907.2 kPa, Liquid	1310.3
303.36 K, 2940.3 kPa, Liquid	1310.77
303.36 K, 3022.9 kPa, Liquid	1311.53
303.36 K, 3048.7 kPa, Liquid	1311.84
303.36 K, 3100.9 kPa, Liquid	1312.32
303.36 K, 3125.6 kPa, Liquid	1312.63
303.36 K, 3150.3 kPa, Liquid	1312.98
303.36 K, 3176.4 kPa, Liquid	1313.02
303.36 K, 3201.4 kPa, Liquid	1313.32
303.36 K, 3226.8 kPa, Liquid	1313.58
303.36 K, 3276.7 kPa, Liquid	1313.98
303.36 K, 3325.1 kPa, Liquid	1314.49
303.36 K, 3349.9 kPa, Liquid	1314.75
303.36 K, 3375.9 kPa, Liquid	1314.91
303.36 K, 3401.4 kPa, Liquid	1315.17
303.36 K, 3428.7 kPa, Liquid	1315.55
303.36 K, 3457.9 kPa, Liquid	1315.79
303.36 K, 3482.4 kPa, Liquid	1315.97
303.36 K, 3532.9 kPa, Liquid	1316.48
303.36 K, 3636.8 kPa, Liquid	1317.48
303.36 K, 3692 kPa, Liquid	1318.07
303.36 K, 3744.5 kPa, Liquid	1318.56
303.36 K, 3799.6 kPa, Liquid	1319.05
303.36 K, 3852.6 kPa, Liquid	1319.41
303.36 K, 3906.9 kPa, Liquid	1319.99
303.36 K, 3959.3 kPa, Liquid	1320.51
303.36 K, 4068.1 kPa, Liquid	1321.53
303.36 K, 4117.4 kPa, Liquid	1322.06
303.36 K, 4226.8 kPa, Liquid	1323.01
303.36 K, 4279 kPa, Liquid	1323.53
303.36 K, 4384.9 kPa, Liquid	1324.43
303.36 K, 4442 kPa, Liquid	1324.86
303.36 K, 4491.1 kPa, Liquid	1325.26
303.36 K, 4545.1 kPa, Liquid	1325.86
303.36 K, 4652.9 kPa, Liquid	1326.85
303.36 K, 4706.2 kPa, Liquid	1327.25
303.36 K, 4761.9 kPa, Liquid	1327.67
303.36 K, 4810.6 kPa, Liquid	1328.19
303.36 K, 4861.8 kPa, Liquid	1328.62
303.36 K, 4913.7 kPa, Liquid	1329.12
303.36 K, 4970 kPa, Liquid	1329.46
303.36 K, 5017 kPa, Liquid	1329.84
303.36 K, 5088.1 kPa, Liquid	1330.55
303.36 K, 5216.5 kPa, Liquid	1331.6
303.36 K, 5343.2 kPa, Liquid	1332.68
303.36 K, 5408.2 kPa, Liquid	1333.2
303.36 K, 5478.7 kPa, Liquid	1333.8
303.36 K, 5540.7 kPa, Liquid	1334.24
303.36 K, 5605.9 kPa, Liquid	1334.94
303.36 K, 5666.1 kPa, Liquid	1335.34
303.36 K, 5731.3 kPa, Liquid	1335.77
303.36 K, 5921.6 kPa, Liquid	1337.37
303.36 K, 5981.8 kPa, Liquid	1337.85
303.36 K, 6042.7 kPa, Liquid	1338.34
303.36 K, 6104.9 kPa, Liquid	1338.9
303.36 K, 6169.9 kPa, Liquid	1339.47
303.36 K, 6232.2 kPa, Liquid	1339.84
303.36 K, 6297.1 kPa, Liquid	1340.49
303.36 K, 6362 kPa, Liquid	1340.92
303.36 K, 6487 kPa, Liquid	1341.93
303.36 K, 6549.6 kPa, Liquid	1342.5
303.36 K, 6613.9 kPa, Liquid	1342.92
303.36 K, 6678.1 kPa, Liquid	1343.42
303.36 K, 6742 kPa, Liquid	1343.99
303.36 K, 6802.7 kPa, Liquid	1344.44
303.36 K, 6864.7 kPa, Liquid	1344.88
303.36 K, 6928 kPa, Liquid	1345.36
303.36 K, 7053.8 kPa, Liquid	1346.25
303.36 K, 7120.4 kPa, Liquid	1346.76
303.36 K, 7184.3 kPa, Liquid	1347.25
303.36 K, 7245.2 kPa, Liquid	1347.73
303.36 K, 7308.5 kPa, Liquid	1348.26
303.36 K, 7370.8 kPa, Liquid	1348.64
303.36 K, 7436.1 kPa, Liquid	1349.17
303.36 K, 7499.7 kPa, Liquid	1349.66
303.36 K, 7563.6 kPa, Liquid	1350.15
303.36 K, 7689.6 kPa, Liquid	1351.05
303.36 K, 7751.3 kPa, Liquid	1351.45
303.36 K, 7812.7 kPa, Liquid	1351.9
303.36 K, 7879.7 kPa, Liquid	1352.39
303.36 K, 7943 kPa, Liquid	1352.95
303.36 K, 8005.8 kPa, Liquid	1353.4
303.36 K, 8100.6 kPa, Liquid	1353.99
303.36 K, 8290.6 kPa, Liquid	1355.42
303.36 K, 8481.2 kPa, Liquid	1356.76
303.36 K, 8578.2 kPa, Liquid	1357.54
303.36 K, 8675.5 kPa, Liquid	1358.15
303.36 K, 8768.5 kPa, Liquid	1358.79
303.36 K, 8868.4 kPa, Liquid	1359.47
303.36 K, 8967.8 kPa, Liquid	1360.24
303.36 K, 9068.6 kPa, Liquid	1360.85
303.36 K, 9168.1 kPa, Liquid	1361.57
303.36 K, 9265.9 kPa, Liquid	1362.22
303.36 K, 9367 kPa, Liquid	1362.91
303.36 K, 9568.1 kPa, Liquid	1364.22
303.36 K, 9667.3 kPa, Liquid	1364.9
303.36 K, 9768.6 kPa, Liquid	1365.55
303.36 K, 9865.8 kPa, Liquid	1366.04
303.36 K, 9961.4 kPa, Liquid	1366.81
303.36 K, 9992.6 kPa, Liquid	1366.98
323.21 K, 7 kPa, Fluid (supercritical or subcritical phases)	0.29
323.21 K, 10.8 kPa, Fluid (supercritical or subcritical phases)	0.58
323.21 K, 14.3 kPa, Fluid (supercritical or subcritical phases)	0.86

Liquid
Conditions	vapor or sublimation pressure [kPa]
308.21 K	963.4
313.21 K	1099.9
318.22 K	1250.6
323.2 K	1413.5
